From BindingDB's records for patent US20240368170 (Genentech, 2024)

Target: Mitogen-activated protein kinase kinase kinase kinase 1 (Homo sapiens, UniProt Q92918)
Experiment: Lantha Binding Assay
Procedure: For the binding assay, 4 μL 2×HPK1 and Eu-anti-GST antibody were added to each well of the assay plate using a Multidrop reagent dispenser. The solutions were incubated in a 23 C incubator for 1 h. […] The solutions were again incubated in a 23° C. incubator for 1 h.

Sequence of Mitogen-activated protein kinase kinase kinase kinase 1 (Q92918 whole entry): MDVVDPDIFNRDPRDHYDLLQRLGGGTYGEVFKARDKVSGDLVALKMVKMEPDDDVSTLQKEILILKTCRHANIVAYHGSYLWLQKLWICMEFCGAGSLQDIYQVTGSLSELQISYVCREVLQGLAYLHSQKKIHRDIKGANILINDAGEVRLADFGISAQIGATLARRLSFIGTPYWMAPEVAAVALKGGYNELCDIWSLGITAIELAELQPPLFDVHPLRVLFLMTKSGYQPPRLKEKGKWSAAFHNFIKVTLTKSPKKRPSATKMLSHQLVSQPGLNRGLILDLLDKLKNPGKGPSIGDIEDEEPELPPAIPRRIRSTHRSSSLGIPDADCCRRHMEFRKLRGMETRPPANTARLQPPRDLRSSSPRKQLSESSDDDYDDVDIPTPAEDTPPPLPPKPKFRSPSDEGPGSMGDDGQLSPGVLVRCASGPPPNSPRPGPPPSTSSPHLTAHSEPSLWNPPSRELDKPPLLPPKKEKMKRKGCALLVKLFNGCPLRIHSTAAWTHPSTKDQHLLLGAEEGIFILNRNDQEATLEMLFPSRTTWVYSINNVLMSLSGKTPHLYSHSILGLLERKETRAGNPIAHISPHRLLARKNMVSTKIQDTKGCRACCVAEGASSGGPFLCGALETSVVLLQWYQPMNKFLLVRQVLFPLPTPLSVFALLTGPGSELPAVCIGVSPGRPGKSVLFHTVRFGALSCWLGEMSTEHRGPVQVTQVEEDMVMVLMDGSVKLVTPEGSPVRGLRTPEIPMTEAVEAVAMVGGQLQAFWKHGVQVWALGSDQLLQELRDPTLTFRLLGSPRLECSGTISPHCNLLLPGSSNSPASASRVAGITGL

Row | Structure (SMILES) | Ki [nM]
1 | CC(C)NC(=O)Nc1cc2cc(-c3cnn(C)c3)cc(N)c2nn1 [US20240368170, Compound 8] | 21
2 | CCn1cc(-c2cc(N)c3nnc(NC(=O)[C@@H]4C[C@@H]4F)cc3c2)cn1 [US20240368170, Compound 1a] | 84
